Data: PubChem BioAssay (NCI)
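Compound exposure: 48 hours, 5 concentrations, 96-well plates. TGI denotes the concentration required for complete inhibition of growth.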

Key:
Test in all cases: NCI tumour cell line growth inhibition, 48 h
OVCAR-3 ovarian = test system: OVCAR-3 ovarian
PC-3 prostate = test system: PC-3 prostate
ACHN renal = test system: ACHN renal
SNB-75 CNS = test system: SNB-75 CNS
EKVX NSCLC = test system: EKVX NSCLC
KM12 colon = test system: KM12 colon
K-562 leukemia = test system: K-562 leukemia
SK-MEL-2 melanoma = test system: SK-MEL-2 melanoma
LOX IMVI melanoma = test system: LOX IMVI melanoma
UACC-257 melanoma = test system: UACC-257 melanoma
HCT-116 colon = test system: HCT-116 colon
NCI-H23 lung = test system: NCI-H23 lung
TK-10 renal = test system: TK-10 renal
SR leukemia = test system: SR leukemia

| Compound | TGI (OVCAR-3 ovarian) [µM] | TGI (PC-3 prostate) [µM] | TGI (ACHN renal) [µM] | TGI (SNB-75 CNS) [µM] | TGI (EKVX NSCLC) [µM] | TGI (KM12 colon) [µM] | TGI (K-562 leukemia) [µM] | TGI (SK-MEL-2 melanoma) [µM] | TGI (LOX IMVI melanoma) [µM] | TGI (UACC-257 melanoma) [µM] | TGI (HCT-116 colon) [µM] | TGI (NCI-H23 lung) [µM] | TGI (TK-10 renal) [µM] | TGI (SR leukemia) [µM] |
| --- | --- | --- | --- | --- | --- | --- | --- | --- | --- | --- | --- | --- | --- | --- |
| CC(NC(=O)C(N)CC(=O)O)NC(=O)C1CCC1 (stereo unspecified) | > 100 | > 100 | > 100 | > 100 | > 100 | > 100 | > 100 | > 100 | > 100 | > 100 | > 100 | > 100 | > 100 |  |
| C[n+]1c(-c2ccc(/C=N/NC(=O)C(=O)N/N=C/c3ccc(-c4cn5ccsc5[n+]4C)cc3)cc2)cn2ccsc21 |  | > 100 | > 100 | > 100 | > 100 | > 100 | > 100 |  |  | > 100 | > 100 |  | > 100 | > 100 |
| CO[C@@H]1C=C[C@@]23c4cc5c(cc4C(=O)O[C@H]2CN(C)[C@H]3C1)OCO5 | > 100 |  | > 100 | > 100 | > 100 | > 100 | > 100 | > 100 | > 100 | > 100 | > 100 | > 100 | > 100 | > 100 |
| c1cc2c(c(NC3=NCCO3)c1)CCC2 | > 100 | > 100 | > 100 |  | > 100 | > 100 | > 100 | > 100 | > 100 | > 100 | > 100 | > 100 | > 100 | > 100 |
| COC(=O)[C@@H]1CN(C(C)=O)C(=O)N1C(=O)OCc1ccccc1 | > 100 | > 100 | > 100 |  | > 100 | > 100 | > 100 | > 100 | > 100 | > 100 | > 100 | > 100 | > 100 | > 100 |
| Oc1ccc(N=C2CCC(=C(c3ccccc3)c3ccc(Nc4ccc(O)cc4)cc3)CC2)cc1 |  | > 100 | > 100 |  |  | > 100 | > 100 | > 100 | > 100 | > 100 | > 100 | > 100 | > 100 | > 100 |
| CC(NC(=O)c1ccccc1)NC(=O)C(C)C(=O)Nc1ccccc1 (stereo unspecified) |  | > 100 | > 100 | > 100 | > 100 | > 100 | > 100 | > 100 |  | > 100 | > 100 | > 100 | > 100 | > 100 |
| Cc1nnc2sc(NN)nn12 | > 100 | > 100 | > 100 | > 100 | > 100 | > 100 | > 100 | > 100 | > 100 | > 100 | > 100 | > 100 | > 100 |  |
| CC1Oc2c(c(=O)oc3ccccc23)[C@@]1(C)CC1C[C@H](C)C(=O)O1 (stereo partly specified) | 45.3 | > 100 | 65.8 | > 100 | > 100 | > 100 | 66 | > 100 | > 100 | > 100 | 28.4 | 40.9 | > 100 |  |
